In ChEMBL document CHEMBL1909046, “DrugMatrix in vitro pharmacology data” one finds IC50 and Ki data, which are given here for 17 compounds.

One assay addresses D(3) dopamine receptor (Homo sapiens, UniProt P35462). As to the kind of experiment: DRUGMATRIX: Dopamine D3 radioligand binding (ligand: [3H] Spiperone). The format is cell membranes, CHO, Membrane. Conditions: cho.
The target in another assay is Estrogen receptor beta (Homo sapiens, UniProt Q92731). Conditions: sf9. Further: in other assays of this panel Not Active means under 50% inhibition at 10 µM.
Assay [1] addresses T1, Alpha-1B adrenergic receptor (Rattus norvegicus, UniProt P15823).
T1 sequence (P15823 whole entry): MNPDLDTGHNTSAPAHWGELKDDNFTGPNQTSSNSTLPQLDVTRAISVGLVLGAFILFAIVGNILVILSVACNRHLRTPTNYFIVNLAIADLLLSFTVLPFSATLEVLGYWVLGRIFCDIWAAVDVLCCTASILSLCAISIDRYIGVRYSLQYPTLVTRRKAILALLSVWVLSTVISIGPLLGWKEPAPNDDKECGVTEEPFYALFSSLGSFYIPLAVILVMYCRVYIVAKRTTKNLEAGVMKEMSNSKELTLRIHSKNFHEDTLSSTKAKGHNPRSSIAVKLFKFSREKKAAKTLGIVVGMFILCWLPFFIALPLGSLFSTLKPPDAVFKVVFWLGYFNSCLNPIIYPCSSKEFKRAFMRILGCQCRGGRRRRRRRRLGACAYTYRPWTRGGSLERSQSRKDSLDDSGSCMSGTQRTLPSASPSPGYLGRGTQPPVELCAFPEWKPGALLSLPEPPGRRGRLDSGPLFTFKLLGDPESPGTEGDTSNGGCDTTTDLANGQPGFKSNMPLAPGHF
As to the kind of experiment: DRUGMATRIX: Alpha-1B adrenergic receptor radioligand binding (ligand: prazosin). It is filed as cell membranes, Wistar, Liver, Membrane. The note with it: Not Active = under 50% inhibition at 10 µM.

Assay [2] in a line: DRUGMATRIX: Calcium Channel Type L, Dihydropyridine radioligand binding (ligand: [3H] Nitrendipine). The format is cell membranes, Rattus norvegicus, Wistar, Cerebral cortex, Membrane. The note with it: Not Active = under 50% inhibition at 10 µM.
A further assay has as its target T2, Cathepsin G (Homo sapiens, UniProt P08311).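 Further: inhibition of Cathepsin G enzyme activity, tested on an AMC-conjugated peptide substrate; in other assays of this panel Not Active means under 50% inhibition at 10 µM.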
T2 sequence (P08311 whole entry): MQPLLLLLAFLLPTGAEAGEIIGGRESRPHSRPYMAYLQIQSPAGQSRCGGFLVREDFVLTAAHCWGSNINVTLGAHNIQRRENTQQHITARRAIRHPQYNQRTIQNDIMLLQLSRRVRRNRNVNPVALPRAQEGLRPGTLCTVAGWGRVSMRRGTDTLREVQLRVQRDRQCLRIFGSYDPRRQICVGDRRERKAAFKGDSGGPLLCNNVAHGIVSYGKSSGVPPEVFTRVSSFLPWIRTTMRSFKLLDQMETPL
The format is tissue-based. Conditions: neutrophil.

A further assay addresses Mu-type opioid receptor (Homo sapiens, UniProt P35372). As to the kind of experiment: DRUGMATRIX: Opiate mu (OP3, MOP) radioligand binding (ligand: [3H] Diprenorphine). Conditions: Not Active = under 50% inhibition at 10 µM. It is filed as cell membranes, CHO-K1, Membrane.
For assay [3], the target named is T3, Neuropeptide Y receptor type 2 (Homo sapiens, UniProt P49146). Further: in other assays of this panel Not Active means under 50% inhibition at 10 µM.
T3 sequence (P49146 whole entry): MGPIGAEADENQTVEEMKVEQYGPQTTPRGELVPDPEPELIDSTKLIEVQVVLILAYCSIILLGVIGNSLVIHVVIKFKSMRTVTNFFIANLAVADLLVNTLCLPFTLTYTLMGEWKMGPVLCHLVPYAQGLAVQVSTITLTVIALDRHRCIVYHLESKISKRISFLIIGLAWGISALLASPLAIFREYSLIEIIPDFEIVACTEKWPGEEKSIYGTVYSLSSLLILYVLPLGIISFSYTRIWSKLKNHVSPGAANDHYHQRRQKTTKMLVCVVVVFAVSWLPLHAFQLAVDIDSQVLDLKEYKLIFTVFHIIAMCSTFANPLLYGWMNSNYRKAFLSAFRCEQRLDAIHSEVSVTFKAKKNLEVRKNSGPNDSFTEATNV
The format is cell membranes, Membrane. Conditions: kan-ts.

Chain of D(3) dopamine receptor (P35462 whole entry): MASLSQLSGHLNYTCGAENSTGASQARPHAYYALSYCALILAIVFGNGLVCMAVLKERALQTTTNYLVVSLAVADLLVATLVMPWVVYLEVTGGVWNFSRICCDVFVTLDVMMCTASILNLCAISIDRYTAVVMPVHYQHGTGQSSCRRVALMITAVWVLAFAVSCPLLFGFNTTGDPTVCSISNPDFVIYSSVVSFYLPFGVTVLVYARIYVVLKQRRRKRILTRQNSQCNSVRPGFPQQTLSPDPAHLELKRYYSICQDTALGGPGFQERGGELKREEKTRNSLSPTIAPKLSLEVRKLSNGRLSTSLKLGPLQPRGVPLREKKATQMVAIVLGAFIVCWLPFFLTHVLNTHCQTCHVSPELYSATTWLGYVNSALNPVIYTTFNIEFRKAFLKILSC
Chain of Estrogen receptor beta (Q92731 whole entry): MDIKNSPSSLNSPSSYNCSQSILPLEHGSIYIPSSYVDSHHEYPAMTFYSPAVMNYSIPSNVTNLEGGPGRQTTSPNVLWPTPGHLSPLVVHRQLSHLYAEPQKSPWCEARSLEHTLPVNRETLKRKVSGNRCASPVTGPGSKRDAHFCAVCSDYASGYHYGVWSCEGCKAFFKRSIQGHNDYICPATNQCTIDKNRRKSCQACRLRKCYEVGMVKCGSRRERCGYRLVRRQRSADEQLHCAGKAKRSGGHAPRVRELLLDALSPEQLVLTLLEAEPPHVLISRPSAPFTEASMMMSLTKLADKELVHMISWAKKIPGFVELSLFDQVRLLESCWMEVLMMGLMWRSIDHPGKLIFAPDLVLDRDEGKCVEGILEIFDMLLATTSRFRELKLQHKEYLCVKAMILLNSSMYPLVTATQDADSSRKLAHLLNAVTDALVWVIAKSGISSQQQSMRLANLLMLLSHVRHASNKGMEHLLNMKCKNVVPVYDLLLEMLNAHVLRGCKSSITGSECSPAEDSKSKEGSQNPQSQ
Chain of Mu-type opioid receptor (P35372 whole entry): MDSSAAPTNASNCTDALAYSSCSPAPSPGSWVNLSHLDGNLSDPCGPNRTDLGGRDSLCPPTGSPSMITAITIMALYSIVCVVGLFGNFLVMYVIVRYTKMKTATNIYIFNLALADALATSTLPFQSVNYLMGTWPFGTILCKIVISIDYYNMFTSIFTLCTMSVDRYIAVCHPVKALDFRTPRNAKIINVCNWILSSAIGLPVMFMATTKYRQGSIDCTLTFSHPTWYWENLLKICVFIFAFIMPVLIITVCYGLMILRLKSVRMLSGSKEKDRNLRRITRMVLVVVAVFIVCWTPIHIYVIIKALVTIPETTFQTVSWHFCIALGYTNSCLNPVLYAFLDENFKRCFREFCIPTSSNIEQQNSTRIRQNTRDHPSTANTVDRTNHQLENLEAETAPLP

For `O=c1ncn2nc(Sc3ccc(F)cc3F)ccc2c1-c1c(Cl)cccc1Cl` [NEFLAMAPIMOD], the IC50 result on D(3) dopamine receptor was “Not Active”; against Estrogen receptor beta, “Not Active”; in assay [1], “Not Active”; in assay [2] (read-out: IC50), 38.9 µM; against Cathepsin G it was “Not Active”; on Mu-type opioid receptor (cho-k1) it was “Not Active”. The IC50 result in assay [3] is recorded as “Not Active”. Moreover, the Ki in assay [2] (read-out: Ki) was found to be 25 µM.
In the case of `CO[C@H]1/C=C/O[C@@]2(C)Oc3c(C)c(O)c4c(O)c(c(/C=N/N5CCN(C)CC5)c(O)c4c3C2=O)NC(=O)/C(C)=C\C=C\[C@H](C)[C@H](O)[C@@H](C)[C@@H](O)[C@@H](C)[C@H](OC(C)=O)[C@@H]1C` [RIFAMPIN], the IC50 result (on D(3) dopamine receptor; against Estrogen receptor beta; in assay [1]; in assay [2]; against Cathepsin G; on Mu-type opioid receptor (cho-k1)) was “Not Active” each time. Also, the IC50 result in assay [3] is “Not Active”. The Ki result in assay [2] was “Not Active”.
Turning to `Nc1nc2ccc(OC(F)(F)F)cc2s1` [RILUZOLE], the IC50 entry (on D(3) dopamine receptor; at Estrogen receptor beta; in assay [1]; in assay [2]; against Cathepsin G; at Mu-type opioid receptor (cho-k1)) was “Not Active” each time. In addition, the IC50 entry in assay [3] is reported as “Not Active”. The Ki result in assay [2] was “Not Active”.
Consider `C=CCC1(C(C)CCC)C(=O)NC(=O)NC1=O` (configuration not stated) [SECOBARBITAL], for which the IC50 result (at D(3) dopamine receptor; against Estrogen receptor beta; in assay [1]; in assay [2]; at Cathepsin G; on Mu-type opioid receptor (cho-k1)) was “Not Active” each time. Also, the IC50 entry in assay [3] is listed as “Not Active”. Besides, in assay [2], the Ki result is on record as “Not Active”.
In the case of `C[C@@H]1CN(c2c(F)c(N)c3c(=O)c(C(=O)O)cn(C4CC4)c3c2F)C[C@H](C)N1` [SPARFLOXACIN], the IC50 entry (at D(3) dopamine receptor; against Estrogen receptor beta; in assay [1]; in assay [2]; against Cathepsin G; on Mu-type opioid receptor (cho-k1)) was “Not Active” throughout. Besides, the IC50 entry in assay [3] was “Not Active”. The Ki entry in assay [2] is “Not Active”.
As for `Cc1noc(NS(=O)(=O)c2ccc(N)cc2)c1C` [SULFISOXAZOLE], the IC50 result (at D(3) dopamine receptor; at Estrogen receptor beta; in assay [1]; in assay [2]; against Cathepsin G; on Mu-type opioid receptor (cho-k1)) was “Not Active” throughout. Further, the IC50 entry in assay [3] is reported as “Not Active”. Besides, the Ki entry in assay [2] is given as “Not Active”.
Consider `CSc1ccc(/C=C2/C(C)=C(CC(=O)O)c3cc(F)ccc32)cc1` [SULINDAC SULFIDE], for which the IC50 entry on D(3) dopamine receptor is “Not Active”; at Estrogen receptor beta it was “Not Active”; in assay [1], “Not Active”; in assay [2], “Not Active”; against Cathepsin G, “Not Active”; at Mu-type opioid receptor (read-out: IC50) it was 33.7 µM. For the same compound, the IC50 result in assay [3] is “Not Active”. The figures for the Ki entry (in assay [2]; at Mu-type opioid receptor) were “Not Active” and 13.7 µM, respectively.
As to `Nc1c2c(nc3ccccc13)CCCC2` [TACRINE], the IC50 result (at D(3) dopamine receptor; against Estrogen receptor beta; in assay [1]; in assay [2]; on Cathepsin G; on Mu-type opioid receptor (cho-k1)) was “Not Active” in each case. Moreover, the IC50 result in assay [3] was “Not Active”. The Ki entry in assay [2] is “Not Active”.
As for `Nc1nc2nc[nH]c2c(=S)[nH]1` [THIOGUANINE], the IC50 result (on D(3) dopamine receptor; on Estrogen receptor beta; in assay [1]; in assay [2]; against Cathepsin G; on Mu-type opioid receptor (cho-k1)) was “Not Active” in each case. In addition, in assay [3], the IC50 entry was “Not Active”. In addition, the inhibition constant (Ki) result in assay [2] is given as “Not Active”.
For the compound `Cc1cccc(N(C)C(=S)Oc2ccc3ccccc3c2)c1` [TOLNAFTATE], the IC50 result (at D(3) dopamine receptor; against Estrogen receptor beta; in assay [1]; in assay [2]; at Cathepsin G; on Mu-type opioid receptor (cho-k1)) was “Not Active” throughout. The concentration for half-maximal inhibition (IC50) result in assay [3] was “Not Active”. For the same compound, the Ki entry in assay [2] is listed as “Not Active”.
Turning to `NC[C@H]1CC[C@H](C(=O)O)CC1` [TRANEXAMIC ACID], the IC50 entry (at D(3) dopamine receptor; against Estrogen receptor beta; in assay [1]; in assay [2]; against Cathepsin G; at Mu-type opioid receptor (cho-k1)) was “Not Active” throughout. In assay [3], the IC50 result is reported as “Not Active”. Besides, the Ki entry in assay [2] is “Not Active”.
As for `CC1(C)O[C@@H]2C[C@H]3[C@@H]4CCC5=CC(=O)C=C[C@]5(C)[C@@]4(F)[C@@H](O)C[C@]3(C)[C@]2(C(=O)CO)O1` [TRIAMCINOLONE ACETONIDE], the IC50 entry (at D(3) dopamine receptor; on Estrogen receptor beta; in assay [1]; in assay [2]; at Cathepsin G; at Mu-type opioid receptor (cho-k1)) was “Not Active” throughout. In addition, in assay [3], the IC50 result is given as “Not Active”. Further, the Ki result in assay [2] is given as “Not Active”.
Consider `NS(=O)(=O)c1cc2c(cc1Cl)NC(C(Cl)Cl)NS2(=O)=O` (configuration not stated) [TRICHLORMETHIAZIDE], for which the IC50 entry (on D(3) dopamine receptor; on Estrogen receptor beta; in assay [1]; in assay [2]; against Cathepsin G; at Mu-type opioid receptor (cho-k1)) was “Not Active” in each case. For the same compound, in assay [3], the IC50 result is “Not Active”. For the same compound, the Ki entry in assay [2] was “Not Active”.
As to `Cc1c(C)c2c(c(C)c1O)CCC(C)(COc1ccc(CC3SC(=O)NC3=O)cc1)O2` (configuration not stated) [TROGLITAZONE], the IC50 entry (at D(3) dopamine receptor; against Estrogen receptor beta; in assay [1]; in assay [2]; at Cathepsin G; on Mu-type opioid receptor (cho-k1)) was “Not Active” throughout. Further, the IC50 entry in assay [3] is given as “Not Active”. The Ki result in assay [2] was “Not Active”.
With `N[C@@H]1[C@H]2CN(c3nc4c(cc3F)c(=O)c(C(=O)O)cn4-c3ccc(F)cc3F)C[C@@H]12` [TROVAFLOXACIN], the IC50 result (at D(3) dopamine receptor; against Estrogen receptor beta; in assay [1]; in assay [2]; at Cathepsin G; on Mu-type opioid receptor (cho-k1)) was “Not Active” each time. Further, the IC50 entry in assay [3] is recorded as “Not Active”. The Ki entry in assay [2] was “Not Active”.
On to `N#CC(C#N)=Cc1ccc(O)c(O)c1` [TYRPHOSTIN 23], for which the IC50 entry (at D(3) dopamine receptor; against Estrogen receptor beta; in assay [1]; in assay [2]; on Cathepsin G; on Mu-type opioid receptor (cho-k1)) was “Not Active” throughout. In assay [3], the IC50 entry was “Not Active”. Moreover, in assay [2], the Ki entry was “Not Active”.
For the compound `CCCOc1ccccc1-c1nc2nn[nH]c2c(=O)[nH]1` [ZAPRINAST], the IC50 result (on D(3) dopamine receptor; against Estrogen receptor beta; in assay [1]; in assay [2]; at Cathepsin G; at Mu-type opioid receptor (cho-k1)) was “Not Active” throughout. In addition, in assay [3], the IC50 result is recorded as “Not Active”. In addition, in assay [2], the Ki result is “Not Active”.

What is called IC50 is the concentration needed to halve the response being measured. Broadly, the Ki is the equilibrium dissociation constant of an inhibitor or competing ligand from its target.
